Patent US6855710B2, “Substituted indolines with an inhibitory effect on various kinases and complexes of CDKs” (Boehringer Ingelheim Pharma KG, priority 1998, dated 2005)

Row | Structure (SMILES) | melting point
1 | Nc1ccc(N/C(=C2\C(=O)Nc3ccc([N+](=O)[O-])cc32)c2ccccc2)cc1 [Example 91, (Z)-3-[1-(4-aminophenylamino)-1-phenyl-methylidene]-5-nitro-2-indolinone] | 269 °C
2 | Cl.Cl.O=C1Nc2ccc([N+](=O)[O-])cc2/C1=C(/Nc1ccc(CN2CCNCC2)cc1)c1ccccc1 | > 370 °C
3 | CN(C)C(=O)CN(c1cccc(N/C(=C2\C(=O)Nc3ccccc32)c2ccc(CN)cc2)c1)S(C)(=O)=O [Example 420, (Z)-3-{1-[3-(N-dimethylaminocarbonylmethyl-N-methylsulphonyl-amino)-phenylamino]-1-(4-aminomethyl-phenyl)-methylidene}-2-indolinone] | 220 °C
4 | CNCC(=O)NCc1ccc(N/C(=C2\C(=O)Nc3ccc([N+](=O)[O-])cc32)c2ccccc2)cc1.Cl | 195 to 198 °C
5 | CN(c1ccc(N/C(=C2\C(=O)Nc3ccccc32)c2ccccc2)cc1)S(=O)(=O)CCN1CCCCC1 [Example 383, (Z)-3-{1-[4-(N-(2-piperidinoethylsulphonyl)-N-methyl-amino)-phenylamino]-1-phenyl-methylidene}-2-indolinone] | 121 to 123 °C
6 | Cc1cccc(/C(Nc2ccc(CN(C)C)cc2)=C2/C(=O)Nc3ccc([N+](=O)[O-])cc32)c1 [Example 214, (Z)-3-[1-(4-dimethylaminomethyl-phenylamino)-1-(m-tolyl)-methylidene]-5-nitro-2-indolinone] | 210 °C
7 | C[C@H](N)c1ccc(N/C(=C2\C(=O)Nc3ccc([N+](=O)[O-])cc32)c2ccccc2)cc1.Cl | 230 to 235 °C
8 | O=C1Nc2ccccc2/C1=C(/Nc1ccccc1C(=O)O)c1ccccc1 [Example 8, (Z)-3-[1-(2-carboxy-phenylamino)-1-phenyl-methylidene]-2-indolinone] | 227 to 230 °C
9 | Cl.NCC(=O)NCc1ccc(N/C(=C2\C(=O)Nc3ccc([N+](=O)[O-])cc32)c2ccccc2)cc1 | 225 to 228 °C
10 | CC(C)S(=O)(=O)N(CC(=O)N(C)C)c1ccc(N/C(=C2\C(=O)Nc3ccccc32)c2ccccc2)cc1 [Example 304, (Z)-3-{1-[4-(N-(dimethylaminocarbonylmethyl)-N-isopropylsulphonyl-amino)-phenylamino]-1-phenyl-methylidene}-2-indolinone] | 146 to 148 °C
11 | CN(C)CCNC(=O)c1ccc(N/C(=C2\C(=O)Nc3ccccc32)c2ccccc2)cc1 [Example 390, (Z)-3-{1-[4-(2-dimethylamino-ethylaminocarbonyl)-phenylamino]-1-phenyl-methylidene}-2-indolinone] | 145 to 147 °C
12 | CN(C)CCN(C)C(=O)c1ccc(N/C(=C2\C(=O)Nc3ccccc32)c2ccccc2)cc1 [Example 391, (Z)-3-{1-[4-(N-(2-dimethylaminoethyl)-N-methyl-aminocarbonyl)-phenylamino]-1-phenyl-methylidene}-2-indolinone] | 181 to 183 °C
13 | CCN(CC)S(=O)(=O)c1ccc(N/C(=C2\C(=O)Nc3ccccc32)c2ccccc2)cc1 [Example 398, (Z)-3-{1-[4-(diethylaminosulphonyl)-phenylamino]-1-phenyl-methylidene}-2-indolinone] | 252 to 254 °C
14 | CCCCNC(=O)Nc1ccc(N/C(=C2\C(=O)Nc3ccccc32)c2ccccc2)cc1 [Example 46, (Z)-3-[1-(4-butylaminocarbonylamino-phenylamino)-1-phenyl-methylidene]-2-indolinone] | 216 to 217 °C
15 | CCOC(=O)c1ccc(N/C(=C2\C(=O)Nc3ccccc32)c2ccccc2)cc1 [Example 13, (Z)-3-[1-(4-ethoxycarbonyl-phenylamino)-1-phenyl-methylidene]-2-indolinone] | 227 to 228 °C
16 | O=C1Nc2ccc([N+](=O)[O-])cc2/C1=C(/Nc1ccc(CN2CCC(CO)CC2)cc1)c1ccccc1 [Example 250, (Z)-3-{1-[4-(4-hydroxymethyl-piperidinomethyl)-phenylamino]-1-phenyl-methylidene}-5-nitro-2-indolinone] | 227 to 228 °C
17 | COC(=O)C(N)Cc1ccc(N/C(=C2\C(=O)Nc3ccc([N+](=O)[O-])cc32)c2ccccc2)cc1.Cl (stereo not shown) | 215 °C (dec.)
18 | CCOC(=O)CN(C(=O)CC)c1ccc(N/C(=C2\C(=O)Nc3ccccc32)c2ccccc2)cc1 [Example 356, (Z)-3-{1-[4-(N-ethoxycarbonylmethyl-N-propionyl-amino)-phenylamino]-1-phenyl-methylidene}-2-indolinone] | 229 to 232 °C
19 | O=C1Nc2ccccc2/C1=C(/Nc1ccc(NCCN2CCOCC2)cc1)c1ccccc1 [Example 346, (Z)-3-{1-[4-(2-morpholinoethylamino)-phenylamino]-1-phenyl-methylidene}-2-indolinone] | 257 °C

Row | Structure (SMILES) | melting point
20 | CC(=O)NCc1ccc(/C(Nc2ccc(N(CCN(C)C)S(C)(=O)=O)cc2)=C2/C(=O)Nc3ccccc32)cc1 [Example 427, (Z)-3-{1-[4-(N-(2-dimethylaminoethyl)-N-methylsulphonyl-amino)-phenylamino]-1-(4-acetylaminomethyl-phenyl)-methylidene}-2-indolinone] | 225 to 227 °C
21 | CCS(=O)(=O)N(CC(=O)O)c1ccc(N/C(=C2\C(=O)Nc3ccccc32)c2ccccc2)cc1 [Example 298, (Z)-3-{1-[4-(N-carboxymethyl-N-ethylsulphonyl-amino)-phenylamino]-1-phenyl-methylidene}-2-indolinone] | 240 to 242 °C
22 | CN(C)CC(=O)NCc1ccc(N/C(=C2\C(=O)Nc3ccc([N+](=O)[O-])cc32)c2ccccc2)cc1 [Example 142, (Z)-3-[1-(4-dimethylaminomethylcarbonylaminomethyl-phenylamino)-1-phenyl-methylidene]-5-nitro-2-indolinone] | 272 to 273 °C
23 | CN(c1ccc(N/C(=C2\C(=O)Nc3ccccc32)c2ccccc2)cc1)S(=O)(=O)CCN1CCOCC1 [Example 384, (Z)-3-{1-[4-(N-(2-morpholinoethylsulphonyl)-N-methyl-amino)-phenylamino]-1-phenyl-methylidene}-2-indolinone] | 115 to 117 °C
24 | Cl.NCC(=O)NCc1cccc(N/C(=C2\C(=O)Nc3ccc([N+](=O)[O-])cc32)c2ccccc2)c1 | 309 °C
25 | CN(C)Cc1ccc(N/C(=C2\C(=O)Nc3ccccc32)c2cccc(Cl)c2)cc1 [Example 223, (Z)-3-[1-(4-dimethylaminomethyl-phenylamino)-1-(3-chlorophenyl)-methylidene]-2-indolinone] | 197 to 198 °C
26 | CC(=O)Nc1ccc(N/C(=C2\C(=O)Nc3ccccc32)c2ccccc2)cc1 [Example 31, (Z)-3-[1-(4-acetylamino-phenylamino]-1-phenyl-methylidene]-2-indolinone] | 236 to 238 °C
27 | CN(C)CCN(c1cccc(N/C(=C2\C(=O)Nc3ccccc32)c2ccccc2)c1)S(C)(=O)=O [Example 324, (Z)-3-{1-[3-(N-(2-dimethylaminoethyl)-N-methylsulphonyl-amino)-phenylamino]-1-phenyl-methylidene}-2-indolinone] | 208 to 211 °C
28 | CCC(=O)N(CC(=O)NC)c1ccc(N/C(=C2\C(=O)Nc3ccccc32)c2ccccc2)cc1 [Example 358, (Z)-3-{1-[4-(N-methylaminocarbonylmethyl-N-propionyl-amino)-phenylamino]-1-phenyl-methylidene}-2-indolinone] | 268 °C
29 | Cl.NCC(=O)Nc1ccc(N/C(=C2\C(=O)Nc3ccccc32)c2ccccc2)cc1 | 289 to 290 °C
30 | CC(=O)N1CCN(Cc2ccc(N/C(=C3\C(=O)Nc4ccc([N+](=O)[O-])cc43)c3ccccc3)cc2)CC1 [Example 246, (Z)-3-{1-[4-(4-acetylpiperazin-1-ylmethyl)-phenylamino]-1-phenyl-methylidene}-5-nitro-2-indolinone] | 275 to 277 °C
31 | CC(=O)NCc1ccc(/C(Nc2cccc(N(CC(=O)N(C)C)S(C)(=O)=O)c2)=C2/C(=O)Nc3ccccc32)cc1 [Example 421, (Z)-3-{1-[3-(N-dimethylaminocarbonylmethyl-N-methylsulphonyl-amino)-phenylamino]-1-(4-acetylaminomethyl-phenyl)-methylidene}-2-indolinone] | 194 °C
32 | CC(C)(C)OC(=O)NC(Cc1ccc(N/C(=C2\C(=O)Nc3ccc([N+](=O)[O-])cc32)c2ccccc2)cc1)C(=O)O (stereo not shown) [Example 226, (Z)-3-{1-[4-(2-tert.butoxycarbonylamino-2-carboxy-ethyl)-phenylamino]-1-phenyl-methylidene}-5-nitro-2-indolinone] | 235 °C (dec.)
33 | CN(C)Cc1ccc(N/C(=C2\C(=O)Nc3ccccc32)c2ccc(Cl)cc2)cc1 [Example 221, (Z)-3-[1-(4-dimethylaminomethyl-phenylamino)-1-(4-chlorophenyl)-methylidene]-2-indolinone] | 213 °C
34 | CC(=O)NCc1ccc(/C(Nc2cccc(N(CCCN(C)C)S(C)(=O)=O)c2)=C2/C(=O)Nc3ccccc32)cc1 [Example 425, (Z)-3-{1-[3-(N-(3-dimethylaminopropyl)-N-methylsulphonyl-amino)-phenylamino]-1-(4-acetylaminomethyl-phenyl)-methylidene}-2-indolinone] | 208 °C
35 | O=CN(CCN1CCOCC1)c1ccc(N/C(=C2\C(=O)Nc3ccccc32)c2ccccc2)cc1 [Example 347, (Z)-3-{1-[4-(N-(2-morpholinoethyl)-N-formyl-amino)-phenylamino]-1-phenyl-methylidene}-2-indolinone] | 218 °C
36 | CN(C)C(=O)C1CCN(Cc2ccc(N/C(=C3\C(=O)Nc4ccc([N+](=O)[O-])cc43)c3ccccc3)cc2)CC1 [Example 249, (Z)-3-{1-[4-(4-dimethylaminocarbonyl-piperidinomethyl)-phenylamino]-1-phenyl-methylidene}-5-nitro-2-indolinone] | 272 to 273 °C
37 | CS(=O)(=O)N(CCN1CCOCC1)c1ccc(N/C(=C2\C(=O)Nc3ccc([N+](=O)[O-])cc32)c2ccccc2)cc1 [Example 203, (Z)-3-{1-[4-(N-(2-morpholinoethyl)-N-methylsulphonyl-amino)-phenylamino]-1-phenyl-methylidene}-5-nitro-2-indolinone] | 255 to 257 °C
